Results reported in the supplement of paper PMC13380429.

Columns and labels:
Details in all cases: 72 h
Calu-3 [1] = assay: relative viability EC50 (midpoint between 100% and the lowest measured viability); higher = less toxic
Vero E6 [2] = assay: as above
U2OS [3] = assay: as above
HepG2 [4] = assay: as above
Caco-2 [5] = assay: as above
Calu-3 [6] = assay: drug sensitivity score (DSS) for viability; higher = more toxic; extreme values may be limits of the assay
Vero E6 [7] = assay: as above
U2OS [8] = assay: as above
HepG2 [9] = assay: as above
Caco-2 [10] = assay: as above
Calu-3 [11] = assay: cell viability relative to DMSO; higher = less toxic
Vero E6 [12] = assay: as above
U2OS [13] = assay: as above
HepG2 [14] = assay: as above
Caco-2 [15] = assay: as above

SMILES	relative viability EC50 (Calu-3 [1]) [µM]	relative viability EC50 (Vero E6 [2]) [µM]	relative viability EC50 (U2OS [3]) [µM]	relative viability EC50 (HepG2 [4]) [µM]	relative viability EC50 (Caco-2 [5]) [µM]	drug sensitivity score (Calu-3 [6])	drug sensitivity score (Vero E6 [7])	drug sensitivity score (U2OS [8])	drug sensitivity score (HepG2 [9])	drug sensitivity score (Caco-2 [10])	cell viability (Calu-3 [11]; 1 nM) [%]	cell viability (Calu-3 [11]; 10 nM) [%]	cell viability (Calu-3 [11]; 100 nM) [%]	cell viability (Calu-3 [11]; 1000 nM) [%]	cell viability (Calu-3 [11]; 10000 nM) [%]	cell viability (Vero E6 [12]; 1 nM) [%]	cell viability (Vero E6 [12]; 10 nM) [%]	cell viability (Vero E6 [12]; 100 nM) [%]	cell viability (Vero E6 [12]; 1000 nM) [%]	cell viability (Vero E6 [12]; 10000 nM) [%]	cell viability (U2OS [13]; 1 nM) [%]	cell viability (U2OS [13]; 10 nM) [%]	cell viability (U2OS [13]; 100 nM) [%]	cell viability (U2OS [13]; 1000 nM) [%]	cell viability (U2OS [13]; 10000 nM) [%]	cell viability (HepG2 [14]; 1 nM) [%]	cell viability (HepG2 [14]; 10 nM) [%]	cell viability (HepG2 [14]; 100 nM) [%]	cell viability (HepG2 [14]; 1000 nM) [%]	cell viability (HepG2 [14]; 10000 nM) [%]	cell viability (Caco-2 [15]; 1 nM) [%]	cell viability (Caco-2 [15]; 10 nM) [%]	cell viability (Caco-2 [15]; 100 nM) [%]	cell viability (Caco-2 [15]; 1000 nM) [%]	cell viability (Caco-2 [15]; 10000 nM) [%]
COc1ccccc1OCC(O)CO (stereo not given) [guaifenesin]	> 10	> 10	> 10	> 10	> 10	0	0	0	0	0	99.2	105	101	108	95.2	105	106	105	105	99.5	105	98.8	97	97.2	100	100	99.8	98.7	103	94.7	102	84.5	101	91.2	99.5
Nc1nc2c(ncn2[C@@H]2O[C@H](CO)[C@@H](O)[C@H]2O)c(=O)[nH]1 [guanosine]	> 10	> 10	> 10	> 10	> 10	0	0	0	0	0	96	102	100	97	101	92.6	93.5	92.4	89.7	102	96.9	102	98.2	100	102	102	95.8	105	100	102	85.6	102	97.8	99.9	105
C=CC(=O)N1CCC[C@@H](n2nc(-c3ccc(Oc4ccccc4)cc3)c3c(N)ncnc32)C1 [ibrutinib]	> 10	> 10	> 10	> 10	> 10	0	0	0	0	0	100	92	94.5	98.3	103	99.4	95.5	101	98.7	92.1	101	100	98.6	97.6	100	97	99.1	104	97.2	95.3	103	97.3	101	96.8	101
COc1cc(C(C)=O)ccc1OCCCN1CCC(c2noc3cc(F)ccc23)CC1 [iloperidone]	> 10	> 10	> 10	> 10	> 10	0.4	0	0	0	0.8	93	96.7	104	104	80.5	101	96.7	94.7	98	95.6	97.9	97.5	96.6	99.6	91	91.9	91.3	94.4	94.2	88.6	90.7	98.5	84.8	94.9	82
NCCCCCc1c[nH]cn1 [impentamine]	> 10	> 10	> 10	> 10	> 10	0	0	0	0	0	98.3	99.4	100	98.5	91.9	96.6	99.3	99.9	93.5	96.9	95.7	102	96.6	98.3	95.4	96.6	93.9	103	97.5	101	98	97.9	91.6	97	91.3
CCC(Cc1c(I)cc(I)c(N)c1I)C(=O)O (stereo not given) [iopanic-acid]	> 10	> 10	> 10	> 10	> 10	0	0	0	0	0	101	91.4	96.4	102	108	109	103	104	102	93	99.7	95.6	97.9	96.7	97.1	106	112	100	110	99	110	107	98.8	85.8	113
CN(C)/C=N/c1c(I)cc(I)c(CCC(=O)O)c1I [iopodic-acid]	> 10	> 10	> 10	> 10	> 10	0	0	0	0	0	101	95.4	89.5	99.4	93.2	108	101	108	99.1	102	98.2	100	98.9	102	97.2	98.8	93.7	116	95	98.4	99.8	102	94.3	96.2	105
C=CCN1CC[C@]23CCCC[C@H]2[C@H]1Cc1ccc(O)cc13 [levallorphan]	> 10	> 10	> 10	> 10	> 10	0	0	0	0	0	108	97	99.8	101	104	101	103	99.3	105	101	98.6	93.8	97.3	102	103	102	105	94.2	98.9	88.8	94.6	105	108	95.6	104
Cc1ccc(F)cc1C(=O)Nc1ccc(C(=O)N2Cc3cccn3Cc3ccccc32)c(Cl)c1 [lixivaptan]	> 10	> 10	> 10	> 10	> 10	0	0	0	0.2	0	102	98.6	96.2	105	108	106	103	102	102	95.8	101	96.5	101	96.3	97.7	114	108	99.5	103	84.2	96.6	88.4	91.4	88.3	95
COc1ccc(CN2CCN(C(c3ccc(F)cc3)c3ccc(F)cc3)CC2)c(OC)c1OC [lomerizine]	> 10	> 10	> 10	> 10	> 10	0	0	0	0	0.3	88.9	98.3	94	139	96	92.7	96.5	91.7	93.7	96.7	89.7	99.3	90.3	95.1	99.1	110	102	102	93	106	96.9	104	87.9	98.8	82.7
CNC(=O)c1cccc2cc(Oc3ccnc4cc(OCC5(N)CC5)c(OC)cc34)ccc12 [lucitanib]	> 10	> 10	> 10	> 10	> 10	0	1.2	0	0.2	0	98.8	93	101	98.9	92.1	97.2	100	98.8	86.1	86	99.1	94.4	93.6	99	91.5	95.7	108	106	104	84	93.6	98.1	93.2	97.6	100
COc1cc(-n2c(=S)[nH]c3ccccc3c2=O)c(Cl)cc1Cl [mdivi-1]	> 10	> 10	> 10	> 10	> 10	0	0	0	0	0.1	95.2	97.8	96.2	98.6	92.1	97.8	106	95.1	97.3	93	99.6	104	101	99.7	92.4	94.8	94.3	99.9	95.7	88.3	103	98.1	94.2	94.4	86.6
CNC[C@H](O)[C@@H](O)[C@H](O)[C@H](O)CO [meglumine]	> 10	> 10	> 10	> 10	> 10	0	0	0	0	0	108	95.7	99.4	88.2	97.7	88.3	91.3	93.9	99.5	96.5	98.3	92.8	104	90.8	99	89.7	93.5	81.5	98.1	85	92.6	76.1	95.3	104	95.1
C1N2CN3CN1CN(C2)C3 [methenamine]	> 10	> 10	> 10	> 10	> 10	0	0	0	0	0	97.1	96.4	97.2	102	93.5	98.7	92.3	93.1	94.6	102	89.9	97.5	100	98.2	99.7	98.4	96.2	102	105	106	94.6	99.8	96.5	104	106
CCOC(=O)[C@@](C)(N)Cc1ccc(O)c(O)c1 [methyldopate]	> 10	> 10	> 10	> 10	> 10	0	0	0	0	0	91.4	97.1	101	102	92.5	99.6	98.4	97.4	107	97.7	103	98.4	101	102	89.3	95.7	96.4	97.4	97.4	90.9	103	101	100	103	88.4
